Laboratory results reported in the NIST ThermoML archive (doi:10.1021/je2010209).

Experiment: xn = mol fraction of the nth substance listed
Settings: 101 kPa, Liquid; for speed of sound: Sing-around technique in a fixed-path interferometer; for mass density: Vibrating tube method

COCCOCCOCCO [2-[2-(2-methoxyethoxy)ethoxy]ethanol] + CCCCn1cc[n+](C)c1.F[B-](F)(F)F
Settings | mass density [kg/m3] | speed of sound [m/s]
288.15 K, x2 = 0 | 1050.1 | 1470
288.15 K, x2 = 0.024 | 1056.87 | 1484
288.15 K, x2 = 0.107 | 1076.66 | 1510
288.15 K, x2 = 0.2241 | 1099.67 | 1541
288.15 K, x2 = 0.3275 | 1118.29 | 1555
288.15 K, x2 = 0.4285 | 1135.35 | 1564
288.15 K, x2 = 0.5067 | 1147.58 | 1570
288.15 K, x2 = 0.6282 | 1164.47 | 1575
288.15 K, x2 = 0.7072 | 1174.32 | 1581
288.15 K, x2 = 0.8256 | 1188.11 | 1584
288.15 K, x2 = 0.913 | 1197.84 | 1585
293.15 K, x2 = 0 | 1045.75 | 1452
293.15 K, x2 = 0.024 | 1052.52 | 1466
293.15 K, x2 = 0.107 | 1072.57 | 1492
293.15 K, x2 = 0.2241 | 1095.95 | 1519
293.15 K, x2 = 0.3275 | 1114.5 | 1539
293.15 K, x2 = 0.4285 | 1131.41 | 1550
293.15 K, x2 = 0.5067 | 1143.6 | 1555
293.15 K, x2 = 0.6282 | 1160.74 | 1561
293.15 K, x2 = 0.7072 | 1170.79 | 1568
293.15 K, x2 = 0.8256 | 1184.68 | 1572
293.15 K, x2 = 0.913 | 1194.26 | 1573
298.15 K, x2 = 0 | 1041.32 | 1436
298.15 K, x2 = 0.024 | 1048.15 | 1450
298.15 K, x2 = 0.107 | 1068.36 | 1475
298.15 K, x2 = 0.2241 | 1091.87 | 1503
298.15 K, x2 = 0.3275 | 1110.48 | 1524
298.15 K, x2 = 0.4285 | 1127.42 | 1533
298.15 K, x2 = 0.5067 | 1139.64 | 1541
298.15 K, x2 = 0.6282 | 1156.88 | 1548
298.15 K, x2 = 0.7072 | 1167 | 1555
298.15 K, x2 = 0.8256 | 1181.03 | 1560
298.15 K, x2 = 0.913 | 1190.69 | 1560
303.15 K, x2 = 0 | 1036.84 | 1421
303.15 K, x2 = 0.024 | 1043.76 | 1435
303.15 K, x2 = 0.107 | 1064.17 | 1458
303.15 K, x2 = 0.2241 | 1087.79 | 1488
303.15 K, x2 = 0.3275 | 1106.46 | 1509
303.15 K, x2 = 0.4285 | 1123.48 | 1519
303.15 K, x2 = 0.5067 | 1135.77 | 1528
303.15 K, x2 = 0.6282 | 1153.12 | 1534
303.15 K, x2 = 0.7072 | 1163.33 | 1543
303.15 K, x2 = 0.8256 | 1177.39 | 1548
303.15 K, x2 = 0.913 | 1187 | 1549
308.15 K, x2 = 0 | 1032.27 | 1408
308.15 K, x2 = 0.024 | 1039.37 | 1421
308.15 K, x2 = 0.107 | 1060.13 | 1444
308.15 K, x2 = 0.2241 | 1083.76 | 1475
308.15 K, x2 = 0.3275 | 1102.44 | 1494
308.15 K, x2 = 0.4285 | 1119.54 | 1507
308.15 K, x2 = 0.5067 | 1131.91 | 1516
308.15 K, x2 = 0.6282 | 1149.37 | 1523
308.15 K, x2 = 0.7072 | 1159.63 | 1530
308.15 K, x2 = 0.8256 | 1173.68 | 1536
308.15 K, x2 = 0.913 | 1183.36 | 1538
313.15 K, x2 = 0 | 1027.76 | 1393
313.15 K, x2 = 0.024 | 1034.9 | 1406
313.15 K, x2 = 0.107 | 1055.73 | 1431
313.15 K, x2 = 0.2241 | 1079.59 | 1461
313.15 K, x2 = 0.3275 | 1098.41 | 1483
313.15 K, x2 = 0.4285 | 1115.62 | 1493
313.15 K, x2 = 0.5067 | 1128.04 | 1503
313.15 K, x2 = 0.6282 | 1145.63 | 1511
313.15 K, x2 = 0.7072 | 1155.93 | 1518
313.15 K, x2 = 0.8256 | 1170.13 | 1524
313.15 K, x2 = 0.913 | 1179.9 | 1527
318.15 K, x2 = 0 | 1023.3 | 1376
318.15 K, x2 = 0.024 | 1030.54 | 1390
318.15 K, x2 = 0.107 | 1051.51 | 1415
318.15 K, x2 = 0.2241 | 1075.43 | 1447
318.15 K, x2 = 0.3275 | 1094.37 | 1468
318.15 K, x2 = 0.4285 | 1111.73 | 1480
318.15 K, x2 = 0.5067 | 1124.25 | 1490
318.15 K, x2 = 0.6282 | 1141.8 | 1500
318.15 K, x2 = 0.7072 | 1152 | 1506
318.15 K, x2 = 0.8256 | 1166.14 | 1513
318.15 K, x2 = 0.913 | 1176 | 1516

COCCO [2-methoxyethan-1-ol] + CCCCn1cc[n+](C)c1.F[B-](F)(F)F
Settings | mass density [kg/m3] | speed of sound [m/s]
288.15 K, x2 = 0 | 969.794 | 1380
288.15 K, x2 = 0.0509 | 1000.6 | 1411
288.15 K, x2 = 0.1092 | 1030.06 | 1438
288.15 K, x2 = 0.2052 | 1068.45 | 1474
288.15 K, x2 = 0.3071 | 1099.91 | 1500
288.15 K, x2 = 0.4025 | 1123.36 | 1521
288.15 K, x2 = 0.5116 | 1145.2 | 1539
288.15 K, x2 = 0.6257 | 1164.11 | 1553
288.15 K, x2 = 0.7153 | 1176.88 | 1565
288.15 K, x2 = 0.8088 | 1188.61 | 1574
288.15 K, x2 = 0.9155 | 1199.86 | 1582
293.15 K, x2 = 0 | 965.063 | 1367
293.15 K, x2 = 0.0509 | 996.158 | 1394
293.15 K, x2 = 0.1092 | 1025.74 | 1422
293.15 K, x2 = 0.2052 | 1064.33 | 1460
293.15 K, x2 = 0.3071 | 1095.87 | 1486
293.15 K, x2 = 0.4025 | 1119.42 | 1508
293.15 K, x2 = 0.5116 | 1141.38 | 1527
293.15 K, x2 = 0.6257 | 1160.35 | 1542
293.15 K, x2 = 0.7153 | 1173.17 | 1554
293.15 K, x2 = 0.8088 | 1184.96 | 1563
293.15 K, x2 = 0.9155 | 1196.25 | 1571
298.15 K, x2 = 0 | 960.447 | 1351
298.15 K, x2 = 0.0509 | 991.715 | 1378
298.15 K, x2 = 0.1092 | 1021.41 | 1406
298.15 K, x2 = 0.2052 | 1060.08 | 1446
298.15 K, x2 = 0.3071 | 1091.76 | 1472
298.15 K, x2 = 0.4025 | 1115.42 | 1494
298.15 K, x2 = 0.5116 | 1137.55 | 1514
298.15 K, x2 = 0.6257 | 1156.59 | 1530
298.15 K, x2 = 0.7153 | 1169.47 | 1542
298.15 K, x2 = 0.8088 | 1181.31 | 1551
298.15 K, x2 = 0.9155 | 1192.64 | 1560
303.15 K, x2 = 0 | 955.825 | 1337
303.15 K, x2 = 0.0509 | 987.145 | 1361
303.15 K, x2 = 0.1092 | 1017.07 | 1391
303.15 K, x2 = 0.2052 | 1056.15 | 1431
303.15 K, x2 = 0.3071 | 1087.96 | 1457
303.15 K, x2 = 0.4025 | 1111.59 | 1480
303.15 K, x2 = 0.5116 | 1133.65 | 1501
303.15 K, x2 = 0.6257 | 1152.84 | 1517
303.15 K, x2 = 0.7153 | 1165.77 | 1530
303.15 K, x2 = 0.8088 | 1177.66 | 1539
303.15 K, x2 = 0.9155 | 1189.04 | 1548
308.15 K, x2 = 0 | 951.214 | 1321
308.15 K, x2 = 0.0509 | 982.765 | 1344
308.15 K, x2 = 0.1092 | 1012.72 | 1375
308.15 K, x2 = 0.2052 | 1051.85 | 1415
308.15 K, x2 = 0.3071 | 1083.79 | 1443
308.15 K, x2 = 0.4025 | 1107.66 | 1467
308.15 K, x2 = 0.5116 | 1129.9 | 1488
308.15 K, x2 = 0.6257 | 1149.1 | 1505
308.15 K, x2 = 0.7153 | 1162.09 | 1517
308.15 K, x2 = 0.8088 | 1174.01 | 1526
308.15 K, x2 = 0.9155 | 1185.43 | 1536
313.15 K, x2 = 0 | 946.562 | 1304
313.15 K, x2 = 0.0509 | 978.381 | 1328
313.15 K, x2 = 0.1092 | 1008.49 | 1359
313.15 K, x2 = 0.2052 | 1047.68 | 1400
313.15 K, x2 = 0.3071 | 1079.71 | 1430
313.15 K, x2 = 0.4025 | 1103.68 | 1453
313.15 K, x2 = 0.5116 | 1126.04 | 1475
313.15 K, x2 = 0.6257 | 1145.37 | 1492
313.15 K, x2 = 0.7153 | 1158.41 | 1505
313.15 K, x2 = 0.8088 | 1170.38 | 1514
313.15 K, x2 = 0.9155 | 1181.84 | 1525
318.15 K, x2 = 0 | 941.864 | 1287
318.15 K, x2 = 0.0509 | 973.683 | 1311
318.15 K, x2 = 0.1092 | 1004.01 | 1343
318.15 K, x2 = 0.2052 | 1043.46 | 1383
318.15 K, x2 = 0.3071 | 1075.71 | 1415
318.15 K, x2 = 0.4025 | 1099.79 | 1440
318.15 K, x2 = 0.5116 | 1122.25 | 1461
318.15 K, x2 = 0.6257 | 1141.63 | 1479
318.15 K, x2 = 0.7153 | 1154.74 | 1492
318.15 K, x2 = 0.8088 | 1166.72 | 1502
318.15 K, x2 = 0.9155 | 1178.23 | 1513
